Where two headings read alike, the source gives them in different places. Peptide text beside a SMILES is read from it.
Key:
[1] = biological target: T1, human δ opioid receptors (hDOR) (Homo sapiens, UniProt P41143); experiment: Radioligand competition binding, [3H]DPDPE, hDOR membranes
T1 construct: expressed in transfected cells; host or cells: HN9.10 neuroblastoma cell line, pCDNA3, neomycin-selected clones

[2] = biological target: T2, rat μ opioid receptors (rMOR) (Rattus norvegicus, UniProt P33535); experiment: Radioligand competition binding, [3H]DAMGO, rMOR membranes
T2 construct: expressed in transfected cells; host or cells: HN9.10 neuroblastoma cell line, pCDNA3, neomycin-selected clones
T2 sequence (P33535 whole entry): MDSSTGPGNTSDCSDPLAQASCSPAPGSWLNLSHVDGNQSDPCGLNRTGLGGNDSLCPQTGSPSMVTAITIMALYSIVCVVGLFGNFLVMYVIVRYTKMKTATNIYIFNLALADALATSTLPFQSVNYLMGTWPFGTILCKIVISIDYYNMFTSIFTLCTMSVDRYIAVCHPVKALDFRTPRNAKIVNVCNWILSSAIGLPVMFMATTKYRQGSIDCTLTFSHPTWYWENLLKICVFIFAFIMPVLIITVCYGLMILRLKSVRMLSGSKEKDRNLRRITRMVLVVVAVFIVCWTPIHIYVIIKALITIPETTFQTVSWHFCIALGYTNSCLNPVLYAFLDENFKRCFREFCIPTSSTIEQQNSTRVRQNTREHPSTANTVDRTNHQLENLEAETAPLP

rat NK1 (rNK1) receptor = biological target: T3, rat NK1 (rNK1) receptor (Rattus norvegicus, UniProt P14600); experiment: Radioligand competition binding, [3H]substance P, rNK1/CHO membranes; conditions: for IC50: LogIC50, rNK1, [3H]Substance P, logarithm of IC50 (negative)
T3 construct: expressed in transfected cells; host or cells: CHO (rNK-1/CHO cell line from Dr. James Krause)
T3 sequence (P14600 whole entry): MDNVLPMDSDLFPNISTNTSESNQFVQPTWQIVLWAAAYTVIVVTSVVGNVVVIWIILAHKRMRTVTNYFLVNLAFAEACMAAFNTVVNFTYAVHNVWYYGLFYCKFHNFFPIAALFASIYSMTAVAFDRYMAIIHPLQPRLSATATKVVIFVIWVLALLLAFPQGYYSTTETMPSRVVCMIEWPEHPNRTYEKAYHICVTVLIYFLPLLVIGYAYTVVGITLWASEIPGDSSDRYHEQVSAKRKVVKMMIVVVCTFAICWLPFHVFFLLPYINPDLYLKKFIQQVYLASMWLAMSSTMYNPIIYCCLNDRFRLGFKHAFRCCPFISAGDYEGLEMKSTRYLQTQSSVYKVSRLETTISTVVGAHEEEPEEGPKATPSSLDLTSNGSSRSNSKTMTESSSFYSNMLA

[3] = biological target: T4, human NK1 receptor (hNK1) (Homo sapiens, UniProt P25103); experiment: Radioligand competition binding, [3H]-Substance P, hNK1
T4 construct: expressed in transfected cells
T4 sequence (P25103 whole entry): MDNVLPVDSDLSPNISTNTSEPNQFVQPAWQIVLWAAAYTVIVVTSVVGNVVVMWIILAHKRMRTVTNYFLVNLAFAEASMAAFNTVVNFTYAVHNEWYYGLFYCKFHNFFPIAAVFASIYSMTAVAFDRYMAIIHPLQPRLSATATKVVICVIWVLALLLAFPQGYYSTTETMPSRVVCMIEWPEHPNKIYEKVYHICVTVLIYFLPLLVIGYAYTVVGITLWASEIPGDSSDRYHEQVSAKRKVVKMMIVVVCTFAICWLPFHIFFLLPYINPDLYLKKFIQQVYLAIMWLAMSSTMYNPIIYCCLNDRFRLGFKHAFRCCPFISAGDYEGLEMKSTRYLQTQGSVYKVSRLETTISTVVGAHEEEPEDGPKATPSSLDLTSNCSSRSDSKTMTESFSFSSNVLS

[4] = biological target: T1, human δ opioid receptors (hDOR); experiment: [35S]GTP-γ-S binding assay, hDOR; type: biochemical
[5] = biological target: T2, rat μ opioid receptors (rMOR); experiment: biochemical; type: biochemical
δ opioid receptors (MVD) = biological target: T5, δ opioid receptors (MVD) (Mus musculus, UniProt P32300); experiment: Mouse isolated vas deferens (MVD) assay, opioid agonist
T5 construct: from tissue; host or cells: mouse (ICR) isolated vas deferens
T5 sequence (P32300 whole entry): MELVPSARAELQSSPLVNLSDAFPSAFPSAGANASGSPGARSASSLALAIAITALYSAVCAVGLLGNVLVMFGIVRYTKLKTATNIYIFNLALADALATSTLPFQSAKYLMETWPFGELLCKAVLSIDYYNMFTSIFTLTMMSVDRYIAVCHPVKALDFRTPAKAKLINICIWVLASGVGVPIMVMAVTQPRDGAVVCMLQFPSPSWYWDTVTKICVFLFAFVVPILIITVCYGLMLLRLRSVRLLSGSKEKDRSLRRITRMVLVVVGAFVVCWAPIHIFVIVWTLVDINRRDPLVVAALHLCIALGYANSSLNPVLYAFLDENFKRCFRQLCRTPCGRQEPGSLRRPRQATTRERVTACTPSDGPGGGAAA

μ opioid receptors (GPI) = experiment: Guinea pig isolated ileum (GPI) assay, opioid agonist;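 note: inhibition of electrically evoked contractions (0.1 Hz, 0.4 msec, supramaximal voltage) in organ baths at 37 °C, contraction height 3 min after each cumulative dose versus the 1 min before dosing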
[6] = biological target: T6, Substance P receptors (guinea pig NK1) (Cavia porcellus, UniProt P30547); experiment: Guinea pig isolated ileum (GPI) assay with substance P stimulation in presence of 1 μM naloxone
T6 construct: from tissue; host or cells: guinea pig (Hartley) ileum LMMP, 1 μM naloxone present
T6 sequence (P30547 whole entry): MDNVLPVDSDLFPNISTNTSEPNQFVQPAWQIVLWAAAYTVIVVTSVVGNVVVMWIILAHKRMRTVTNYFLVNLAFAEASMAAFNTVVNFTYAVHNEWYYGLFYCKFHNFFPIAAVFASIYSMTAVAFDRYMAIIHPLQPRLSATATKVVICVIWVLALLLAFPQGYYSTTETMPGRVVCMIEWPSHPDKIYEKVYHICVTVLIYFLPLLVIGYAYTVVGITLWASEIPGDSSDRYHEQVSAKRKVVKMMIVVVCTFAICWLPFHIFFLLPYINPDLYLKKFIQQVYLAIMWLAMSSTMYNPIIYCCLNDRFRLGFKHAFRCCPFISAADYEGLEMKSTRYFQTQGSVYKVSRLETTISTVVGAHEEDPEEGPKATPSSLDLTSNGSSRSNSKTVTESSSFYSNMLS

[7] = In vitro stability in rat plasma at 37° C.; type: in vitro ADME; conditions: rat, rat plasma, read-out: half life (T1/2) in rat plasma (converted)
Procedure: The derivative compounds were tested for their metabolite stability. The compounds were incubated in rat plasma at 37° C., and aliquots were withdrawn at various time points and analyzed by HPLC to determine the concentration of remaining compound derivatives (FIGS. 15-16, 36, and 47-48).
In Vitro Stability of compound derivatives in Rat Plasm (Yamamoto, 2007, J. Am. Chem. Soc. submitted). Stock solution of compounds (50 mg/mL in DMSO) were diluted 1000-fold into rat plasma (Lot 24927, Pel-Freez Biologicals, Rogers, Ak.) to result in an incubation concentration of 50 μg/mL. All samples were incubated at 37° C. for 6 h, and 200 μL of aliquots were withdrawn at 1 h, 2 h, 4 h and 6 h. […] The samples were run in triplicate. Discussion.

[8] = Table 39, read-out: GTP binding hDOR Emax
[9] = Table 39, read-out: GTP binding rMOR Emax
[10] = Table 39, read-out: GPI/LMMP opioid(mu) agonist (IC50; nM)
[11] = Table 39, read-out: Affinity rNK1 (Ki; nM)
[12] = Table 21, HN9.10 cell, read-out: EC50 (nM), hDOR
[13] = Table 21, net total bound/basal binding × 100, read-out: Emax (%), hDOR
[14] = Table 39, read-out: GTP binding hDOR EC50
[15] = Table 21, net total bound/basal binding × 100, read-out: Emax (%), rMOR
[16] = Table 39, read-out: GTP binding rMOR EC50
[17] = net total bound/basal binding × 100, read-out: Emax, rMOR, [35S]GTP-γ-S binding
[18] = electrically stimulated isolated tissue, read-out: MVD (δ), IC50

T1 sequence (P41143 whole entry): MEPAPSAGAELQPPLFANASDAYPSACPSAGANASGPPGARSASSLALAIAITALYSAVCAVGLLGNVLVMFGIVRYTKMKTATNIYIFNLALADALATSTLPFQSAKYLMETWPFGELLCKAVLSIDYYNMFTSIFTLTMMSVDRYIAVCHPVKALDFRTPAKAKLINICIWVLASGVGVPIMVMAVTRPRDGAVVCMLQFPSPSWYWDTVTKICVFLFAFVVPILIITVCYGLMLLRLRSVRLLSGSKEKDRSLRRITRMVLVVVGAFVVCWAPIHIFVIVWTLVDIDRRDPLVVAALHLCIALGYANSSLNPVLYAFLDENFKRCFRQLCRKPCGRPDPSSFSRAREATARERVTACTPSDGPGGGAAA

## CSCC[C@H](NC(=O)[C@H](Cc1ccccc1)NC(=O)CNC(=O)[C@@H](C)NC(=O)[C@@H](N)Cc1c(C)cc(O)cc1C)C(=O)N1CCC[C@H]1C(=O)N[C@@H](CC(C)C)C(=O)N[C@@H](Cc1c[nH]c2ccccc12)C(=O)OCc1cc(C(F)(F)F)cc(C(F)(F)F)c1 [TY033]
[1]
  Ki: 0.22 nM
[2]
  Ki: 1.2 nM
Rat NK1 (rNK1) receptor; Affinity rNK1 (Ki; nM), Table 29
  Ki: 0.96 nM
[3]
  Ki: 1.2 nM
[4]; [8]
  Emax: 200%
[5]; [9]
  Emax: 59%
δ opioid receptors (MVD)
  IC50: 1.27 nM
μ opioid receptors (GPI); Table 30, read-out: GPI/LMMP Opioid(m) Agonist (IC50; nM)
  IC50: 100 nM
μ opioid receptors (GPI); [10]
  IC50: 100 nM
[6]; GPI/LMMP Substance P Antagonist (Ke; nM), Table 30
  Kb: 24.5 nM

## CCCC[C@@H]1NC(=O)[C@H](Cc2ccccc2)NC(=O)CNC(=O)[C@H](NC(=O)[C@@H](N)Cc2ccc(O)cc2)CSSC[C@@H](C(=O)N[C@@H](Cc2c[nH]c3ccccc23)C(=O)NCc2cc(C(F)(F)F)cc(C(F)(F)F)c2)NC(=O)[C@@H]2CCCN2C1=O [TY035, [D-Cys^2, Cys^7]TY027] (HELM PEPTIDE1{Y.[dC].G.F.[Nle].P.C.W.[FC(F)(F)c1cc(CN[*:1])cc(C(F)(F)F)c1]}$PEPTIDE1,PEPTIDE1,2:R3-7:R3$$$V2.0; N-terminus assumed)
[1]
  IC50: 2.51 nM
[1]; read-out: Ki, hDOR, [3H]DPDPE
  Ki: 1.3 nM
[2]
  IC50: 158 nM
[2]; Table 20, ratio rMOR Ki / hDOR Ki
  Ki(μ)/Ki(δ): 61
[2]; read-out: Ki, rMOR, [3H]DAMGO
  Ki: 79 nM
Rat NK1 (rNK1) receptor; Table 20, CHO cell membranes
  IC50: 100 nM
Rat NK1 (rNK1) receptor; Table 20, species ratio
  Ki(hNK1)/Ki(rNK1): 30
Rat NK1 (rNK1) receptor; [11]
  Ki: 30 nM
Rat NK1 (rNK1) receptor; read-out: Ki (nM), rNK1, [3H]Substance P, Table 20, CHO cell membranes
  Ki: 30 nM
[3]
  IC50: 0.2 nM
[3]; read-out: Ki, hNK1
  Ki: 0.1 nM
[4]; [12]
  EC50: 0.02 nM
[4]; Table 21, logarithm of EC50 (negative), HN9.10 cell, read-out: LogEC50, hDOR (converted)
  EC50: 0.0158 nM
[4]; [13]
  Emax: 11%
[4]; [14]
  EC50: 0.02 nM
[4]; [8]
  Emax: 11%
[4]; net total bound/basal binding × 100, read-out: Emax, hDOR, [35S]GTP-γ-S binding
  Emax: < 20%
[5]; LogEC50, rMOR
  EC50: 39.8 nM
[5]; read-out: EC50 (nM), rMOR
  EC50: 36 nM
[5]; read-out: Emax (%), rMOR
  Emax: 41%
[5]; read-out: GTP binding rMOR EC50
  EC50: 36 nM
[5]; read-out: GTP binding rMOR Emax
  Emax: 39%
δ opioid receptors (MVD); Table 22, electrically stimulated isolated tissue, read-out: Opioid agonist MVD (δ), IC50
  IC50: 85 ± 18 nM
δ opioid receptors (MVD); Table 39, read-out: MVD opioid(delta) agonist (IC50; nM)
  IC50: 84.7 nM
μ opioid receptors (GPI); Table 22, electrically stimulated isolated tissue, read-out: Opioid agonist GPI (μ), IC50
  IC50: 1000 ± 200 nM
μ opioid receptors (GPI); [10]
  IC50: 1010 nM
[6]; Substance P antagonist, GPI, Ke (nM), Table 22, in the presence of 1 μM naloxone
  Kb: 2.2 ± 0.6 nM
[6]; Table 39, at 30 nM
  GPI/LMMP SP Agonist (IC50; nM): none
[7]
  half-life at 50 μg/mL: > 6 h

## CC(C)C[C@H](NC(=O)[C@@H]1CCCN1C(=O)[C@H]1CSSC[C@@H](NC(=O)[C@@H](N)Cc2ccc(O)cc2)C(=O)NCC(=O)N[C@@H](Cc2ccccc2)C(=O)N1)C(=O)N[C@@H](Cc1c[nH]c2ccccc12)C(=O)NCc1cc(C(F)(F)F)cc(C(F)(F)F)c1 [TY037, [D-Cys^2, D-Cys^5]TY027]
[1]
  IC50: 15.8 nM
[1]; Table 39, read-out: Affinity hDOR (Ki; nM)
  Ki: 7.8 nM
[1]; read-out: Ki (nM), hDOR, [3H]DPDPE, Table 20, HN9.10 cell membranes
  Ki: 7.8 nM
[2]
  IC50: 126 nM
[2]; read-out: Ki, rMOR, [3H]DAMGO
  Ki: 52 nM
Rat NK1 (rNK1) receptor; Table 20, CHO cell membranes
  IC50: 126 nM
Rat NK1 (rNK1) receptor; [11]
  Ki: 45.5 nM
[4]; [12]
  EC50: 14 nM
[4]; [14]
  EC50: 98.2 nM
[4]; [8]
  Emax: 26%
[5]; [15]
  Emax: 12%
[5]; [16]
  EC50: 52.9 nM
[5]; [9]
  Emax: 8%
[5]; [17]
  Emax: < 20%
δ opioid receptors (MVD); [18]
  IC50: 8.3 nM
μ opioid receptors (GPI); [10]
  IC50: 284 nM
μ opioid receptors (GPI); electrically stimulated isolated tissue, read-out: GPI (μ), IC50
  IC50: 280 nM
[6]; in the presence of 1 μM naloxone
  Substance P antagonist, GPI, Ke: 4.7 nM
[7]
  half-life at 50 μg/mL: 3.7 h

## CC(C)C[C@H](NC(=O)[C@@H]1CCCN1C(=O)[C@@H]1CSSC[C@@H](NC(=O)[C@@H](N)Cc2ccc(O)cc2)C(=O)NCC(=O)N[C@@H](Cc2ccccc2)C(=O)N1)C(=O)N[C@@H](Cc1c[nH]c2ccccc12)C(=O)NCc1cc(C(F)(F)F)cc(C(F)(F)F)c1 [TY039]
[1]
  IC50: 25.1 nM
[2]
  IC50: 398 nM
[2]; read-out: Ki, rMOR, [3H]DAMGO
  Ki: 200 nM
Rat NK1 (rNK1) receptor; Table 20, CHO cell membranes
  IC50: 1580 nM
[4]; [12]
  EC50: 0.9 nM
[4]; [13]
  Emax: 37%
[4]; [14]
  EC50: 50.9 nM
[4]; [8]
  Emax: 37%
[5]; Table 21, HN9.10 cell, read-out: EC50 (nM), rMOR
  EC50: 118 nM
[5]; Table 21, logarithm of EC50 (negative), HN9.10 cell, read-out: LogEC50, rMOR (converted)
  EC50: 126 nM
[5]; [15]
  Emax: 17%
[5]; [16]
  EC50: 118 nM
[5]; [9]
  Emax: 20%
[5]; [17]
  Emax: < 20%
δ opioid receptors (MVD); [18]
  IC50: 73 nM
μ opioid receptors (GPI); Table 22, at 1 uM, no antagonist activity observed at the tested concentration
  Opioid agonist GPI (μ), % inh.: 10% inh. at 1 uM^d
μ opioid receptors (GPI); Table 39
  GPI/LMMP opioid(mu) Antagonist: none
μ opioid receptors (GPI); Table 39, at 1 uM
  GPI/LMMP opioid(mu) agonist, % at 1 uM: 10.1% at
μ opioid receptors (GPI); at the concentration of 1 μM, words
  agonist effect in the functional assay using GPI: nearly no agonist effect
[7]
  half-life at 50 μg/mL: > 6 h

Source: patent publication US8026218B2, “Bifunctional analgesic compounds for opioid receptor agonists and neurokinin-1 receptor antagonists” (The University of Arizona, priority 2006, dated 2011)
